Values after ≈ are worked out from the molar mass of the structure shown.

Experiment [1] deals with Staphylococcus aureus. The experiment can be described thus: Antibacterial activity against Staphylococcus aureus ATCC 6538 after 24 hrs. The format is functional. Particulars: ATCC 6538, 24 h.
In experiment [2] the test system is Staphylococcus aureus. The experiment in a line: Antibacterial activity against methicillin-resistant Staphylococcus aureus ATCC 33591 after 24 hrs. Format: functional. Particulars: ATCC 33591, 24 h.

With `COc1cc(O)c2c(O)c3c(=O)cc(C)oc3cc2c1C` [QUINQUANGULIN], the minimal inhibitory concentration (MIC) (usually the lowest concentration that inhibits growth of the organism) turned out to be 3.12 µg/mL (≈ 10.9 µM) in experiment [1] and 6.25 µg/mL (≈ 21.8 µM) in experiment [2].

Take `CO[C@H]1/C=C/O[C@@]2(C)Oc3c(C)c(O)c4c(O)c(c(/C=N/N5CCN(C)CC5)c(O)c4c3C2=O)NC(=O)/C(C)=C\C=C\[C@H](C)[C@H](O)[C@@H](C)[C@@H](O)[C@@H](C)[C@H](OC(C)=O)[C@@H]1C` [RIFAMPIN]: the figures for the minimum inhibitory concentration (MIC) in experiment [1] and in experiment [2] were 0.005 µg/mL (≈ 0.00608 µM) and under 0.005 µg/mL, respectively.

For the compound `CC[C@H]1OC(=O)[C@H](C)[C@@H](O[C@H]2C[C@@](C)(OC)[C@@H](O)[C@H](C)O2)[C@H](C)[C@@H](O[C@@H]2O[C@H](C)C[C@H](N(C)C)[C@H]2O)[C@](C)(O)C[C@@H](C)C(=O)[C@H](C)[C@@H](O)[C@]1(C)O` [ERYTHROMYCIN], the minimum inhibitory concentration (MIC) in experiment [1] was 1.25 µg/mL (≈ 1.7 µM).

Values taken from ChEMBL document CHEMBL1155762, “A new naphthopyrone derivative from Cassia quinquangulata and structural revision of quinquangulin and its glycosides” (2001).
